Experimental data from patent EP1978972B1, “USE OF ALKYLGLUCOSIDE ESTERS AS BETA-DEFENSIN INDUCERS” (Pierre Fabre Dermo-Cosmétique, priority 2006, dated 2007).

How the values were obtained:
LL-37 = test: Induction of LL-37 gene expression in skin explant, systemic treatment, quantitative RT-PCR; format: cell-based, human; details: 30 µg/ml
From the text: Il est connu de WO 97/45101 que les esters d'α-alkylglucoside peuvent être utilisés comme agent anti-microbien et/ou anti-fongique pour agir en tant que conservateur dans une composition, pour la préserver d'un développement microbien. […]

S. aureus = test: Direct microbicidal activity and direct effect on adhesion of S. aureus; set-up: species or system Staphylococcus aureus; details: at the concentrations used

Substance: laurate de butylglucoside [αβ-LBG brut]
- FI, LL-37 (LL-37; 2 h): 6
- FI, LL-37 (LL-37; up to 24 h, in words): reste stable jusqu'à 24 h
- activité microbicide directe (S. aureus): ni activité microbicide directe
- direct effect on adhésion de S. aureus (S. aureus): ni effet sur l'adhésion de S. aureus
